This passage reports IC50 results from US20250236608A1, “EGFR INHIBITORS” (Blueprint Medicines Corporation, priority 2022, published 2025).

For experiment [1], the target named is EGFR (d746-750) (Homo sapiens (Human), UniProt P00533, DEL746-750). The experiment can be described thus: Biochemical EGFR inhibition assay, EGFR (d746-750). The note with it: Caliper mobility shift; 1.0 mM ATP or ATP Km; read-out: Enz EGFR_Exon19-del746-750 IC50.
Experiment [2] addresses pEGFR (Tyr1068) in PC-9 cells (Ex19Del) (Homo sapiens (Human), UniProt P00533, DEL746-750). The experiment can be described thus: PC-9 pEGFR AlphaLISA assay. The experiment is classed as cell-based. The note with it: 4 hours incubation, p-EGFR (Tyr1068) AlphaLISA, read-out: Ext pEGFR_PC-9 Ex19Del IC50. The procedure, abridged:
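Phospho-EGFR (Tyr1068) was quantified by AlphaLISA SureFire Ultra in lysates of PC-9 cells exposed for 4 h to compound (4-fold, 10-point dilutions).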
A general note: Alpha assays give light when donor and acceptor beads are brought close together.

Experiment [3] concerns the target EGFR L858R (Homo sapiens (Human), UniProt P00533, L858R). Nature of the experiment: Biochemical EGFR inhibition assay, EGFR L858R. Conditions: Caliper mobility shift; 1.0 mM ATP or ATP Km; read-out: Enz EGFR_L858R IC50.

Sequence of EGFR (d746-750) (P00533 other isoform, or with tags, fused parts or gaps del 1-694/del 746-750 limits assumed): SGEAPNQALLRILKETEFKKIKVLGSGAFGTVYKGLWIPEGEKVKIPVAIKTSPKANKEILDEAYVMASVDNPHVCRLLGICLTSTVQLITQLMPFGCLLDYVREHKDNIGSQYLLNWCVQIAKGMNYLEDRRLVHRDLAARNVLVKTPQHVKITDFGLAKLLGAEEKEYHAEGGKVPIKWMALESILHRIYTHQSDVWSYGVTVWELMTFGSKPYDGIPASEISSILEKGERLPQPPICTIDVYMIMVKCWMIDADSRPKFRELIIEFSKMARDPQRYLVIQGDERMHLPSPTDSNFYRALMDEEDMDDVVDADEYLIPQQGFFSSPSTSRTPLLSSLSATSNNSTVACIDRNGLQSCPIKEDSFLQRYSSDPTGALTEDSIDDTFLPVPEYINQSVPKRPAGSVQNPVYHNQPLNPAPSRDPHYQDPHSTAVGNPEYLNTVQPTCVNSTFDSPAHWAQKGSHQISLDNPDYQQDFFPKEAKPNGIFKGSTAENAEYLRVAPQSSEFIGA
Sequence of pEGFR (Tyr1068) in PC-9 cells (Ex19Del) (P00533 other isoform, or with tags, fused parts or gaps del 746-750): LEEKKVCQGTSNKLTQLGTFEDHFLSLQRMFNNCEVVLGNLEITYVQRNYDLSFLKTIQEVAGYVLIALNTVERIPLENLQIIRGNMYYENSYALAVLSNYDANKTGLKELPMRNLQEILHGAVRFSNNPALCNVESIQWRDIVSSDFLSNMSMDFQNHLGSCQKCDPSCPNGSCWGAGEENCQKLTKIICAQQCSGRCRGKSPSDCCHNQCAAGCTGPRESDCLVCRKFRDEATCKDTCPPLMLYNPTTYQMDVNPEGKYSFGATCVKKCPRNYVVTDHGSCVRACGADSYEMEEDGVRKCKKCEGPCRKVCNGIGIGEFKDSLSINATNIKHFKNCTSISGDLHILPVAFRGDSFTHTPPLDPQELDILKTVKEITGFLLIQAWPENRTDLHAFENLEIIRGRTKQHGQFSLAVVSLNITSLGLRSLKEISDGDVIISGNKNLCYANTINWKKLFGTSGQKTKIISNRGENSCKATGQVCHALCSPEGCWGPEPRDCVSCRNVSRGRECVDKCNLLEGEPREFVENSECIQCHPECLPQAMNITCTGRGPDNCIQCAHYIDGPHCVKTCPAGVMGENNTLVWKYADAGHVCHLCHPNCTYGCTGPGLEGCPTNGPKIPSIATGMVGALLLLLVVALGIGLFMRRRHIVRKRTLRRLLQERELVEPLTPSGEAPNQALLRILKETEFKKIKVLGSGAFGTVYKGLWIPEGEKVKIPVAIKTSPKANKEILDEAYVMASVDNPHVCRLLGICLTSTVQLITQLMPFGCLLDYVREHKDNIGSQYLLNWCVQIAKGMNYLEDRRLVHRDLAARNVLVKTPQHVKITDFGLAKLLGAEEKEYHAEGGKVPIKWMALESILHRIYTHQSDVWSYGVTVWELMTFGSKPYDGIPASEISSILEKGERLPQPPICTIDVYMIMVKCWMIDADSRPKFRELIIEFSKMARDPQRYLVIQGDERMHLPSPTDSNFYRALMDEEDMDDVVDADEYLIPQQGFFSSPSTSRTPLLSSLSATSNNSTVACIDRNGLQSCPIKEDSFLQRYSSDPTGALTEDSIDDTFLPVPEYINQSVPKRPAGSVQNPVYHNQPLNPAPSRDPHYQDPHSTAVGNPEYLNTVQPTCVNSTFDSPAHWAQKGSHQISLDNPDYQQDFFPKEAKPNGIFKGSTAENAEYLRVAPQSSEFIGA
Sequence of EGFR L858R (P00533 25-1210 L858R): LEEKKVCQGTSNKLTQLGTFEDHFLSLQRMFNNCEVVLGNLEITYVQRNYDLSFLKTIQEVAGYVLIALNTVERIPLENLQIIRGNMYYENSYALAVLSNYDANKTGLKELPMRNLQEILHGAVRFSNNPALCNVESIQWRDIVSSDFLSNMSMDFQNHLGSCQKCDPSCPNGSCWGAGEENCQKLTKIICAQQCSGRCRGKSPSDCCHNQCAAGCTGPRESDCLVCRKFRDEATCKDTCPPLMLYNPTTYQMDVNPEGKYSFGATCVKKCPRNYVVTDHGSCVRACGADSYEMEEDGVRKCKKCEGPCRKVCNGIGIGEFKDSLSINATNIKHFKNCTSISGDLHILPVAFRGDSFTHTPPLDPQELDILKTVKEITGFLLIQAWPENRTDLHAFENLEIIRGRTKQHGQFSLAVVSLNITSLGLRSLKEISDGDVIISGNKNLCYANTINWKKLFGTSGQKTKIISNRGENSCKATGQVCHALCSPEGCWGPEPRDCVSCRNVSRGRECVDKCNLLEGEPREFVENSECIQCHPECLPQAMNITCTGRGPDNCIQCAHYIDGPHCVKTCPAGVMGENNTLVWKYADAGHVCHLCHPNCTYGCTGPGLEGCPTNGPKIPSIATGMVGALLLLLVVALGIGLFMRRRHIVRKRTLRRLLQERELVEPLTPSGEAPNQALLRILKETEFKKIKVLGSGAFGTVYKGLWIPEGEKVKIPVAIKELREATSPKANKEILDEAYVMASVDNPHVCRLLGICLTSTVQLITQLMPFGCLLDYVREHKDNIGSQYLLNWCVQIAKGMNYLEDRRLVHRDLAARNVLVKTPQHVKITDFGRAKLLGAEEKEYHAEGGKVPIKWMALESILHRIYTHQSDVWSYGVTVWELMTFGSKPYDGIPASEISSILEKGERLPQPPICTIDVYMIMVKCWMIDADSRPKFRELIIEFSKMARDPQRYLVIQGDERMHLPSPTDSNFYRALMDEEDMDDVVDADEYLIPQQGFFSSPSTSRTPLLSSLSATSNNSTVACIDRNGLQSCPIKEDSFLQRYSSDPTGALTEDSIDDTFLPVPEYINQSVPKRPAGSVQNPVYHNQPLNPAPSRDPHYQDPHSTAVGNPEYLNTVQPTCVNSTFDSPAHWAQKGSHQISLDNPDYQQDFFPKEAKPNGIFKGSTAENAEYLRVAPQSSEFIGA

With `CCc1ccc(-c2cc3c(-c4cn(C)nc4-c4ccccc4)ncnc3cc2OC)c2c[nH]nc12` [Example 472, 6-(7-ethyl-2H-indazol-4-yl)-7-methoxy-4-(1-methyl-3-phenyl-1H-pyrazol-4-yl)quinazoline], the IC50 was 1.9 nM in experiment [1], 2.7 nM in experiment [2] and 7.6 nM in experiment [3].

`COc1cc2ncnc(-c3cn(C)nc3-c3ccccc3)c2cc1NC(=O)N1CCN(C)[C@@H]2C[C@@H]21` (stereo in doubt) [Example 186, N-[7-methoxy-4-(1-methyl-3-phenyl-1H-pyrazol-4-yl)quinazolin-6-yl]-5-methyl-2,5-diazabicyclo[4.1.0]heptane-2-carboxamide]: the IC50 in experiment [1] turned out to be 2.3 nM; in experiment [2], 4 nM; in experiment [3], 3.2 nM.

`COc1cc2ncnc(-c3cn(C)nc3-c3ccccc3)c2cc1OC(=O)N1CCOCC1(C)C` [Example 81, 7-methoxy-4-(1-methyl-3-phenyl-1H-pyrazol-4-yl)quinazolin-6-yl 3,3-dimethylmorpholine-4-carboxylate]: the IC50 is 2.2 nM in experiment [1], 5.2 nM in experiment [2] and 6.1 nM in experiment [3].

`COc1cc2ncnc(-c3cn(C)nc3-c3ccccc3)c2cc1OC(=O)N1[C@H](C)COC[C@@H]1C` [Example 63, 7-methoxy-4-(1-methyl-3-phenyl-1H-pyrazol-4-yl)quinazolin-6-yl (3S,5R)-3,5-dimethylmorpholine-4-carboxylate]: the figures for the IC50 in experiment [1], in experiment [2] and in experiment [3] were 2.4 nM, 2.5 nM and 4.8 nM, respectively.

As to `COc1cc2ncnc(-c3cn(C)nc3-c3ccccc3)c2cc1NC(=O)c1cnn(C(F)(F)F)c1` [Example 187, N-(7-methoxy-4-(1-methyl-3-phenyl-1H-pyrazol-4-yl)quinazolin-6-yl)-1-(trifluoromethyl)-1H-pyrazole-4-carboxamide], the IC50 in experiment [1] worked out at 1.5 nM; in experiment [2], 4 nM; in experiment [3], 2.6 nM.

As to `COc1cc2ncnc(-c3cn(C)nc3-c3ccccc3)c2cc1NC(=O)N1C[C@H](C)N(C)C[C@@H]1C` [Example 178, (2S,5S)—N-(7-methoxy-4-(1-methyl-3-phenyl-1H-pyrazol-4-yl)quinazolin-6-yl)-2,4,5-trimethylpiperazine-1-carboxamide], the values for the IC50 in experiment [1], in experiment [2] and in experiment [3] were 3.3 nM, 5.4 nM and 6.2 nM, respectively.

As for `COc1cc2ncnc(-c3cn(C)nc3-c3ccccc3)c2nc1O[C@H](C)c1nnc(C)s1` (single isomer, unassigned) [Example 52, (R)-2-(1-((7-methoxy-4-(1-methyl-3-phenyl-1H-pyrazol-4-yl)pyrido[3,2-d]pyrimidin-6-yl)oxy)ethyl)-5-methyl-1,3,4-thiadiazole or (S)-2-(1-((7-methoxy-4-(1-methyl-3-phenyl-1H-pyrazol-4-yl)pyrido[3,2-d]pyrimidin-6-yl)oxy)ethyl)-5-methyl-1,3,4-thiadiazole], the IC50 worked out at 2.7 nM in experiment [1], 6.3 nM in experiment [2] and 12.3 nM in experiment [3].

In the case of `COc1cc2ncnc(-c3cn(C)nc3-c3ccccc3)c2cc1NC(=O)c1ccc(C)nc1` [Example 323, N-(7-methoxy-4-(1-methyl-3-phenyl-1H-pyrazol-4-yl)quinazolin-6-yl)-6-methylnicotinamide], the concentration for half-maximal inhibition (IC50) in experiment [1] came out at 1.6 nM; in experiment [2], 3.9 nM; in experiment [3], 3.3 nM.

Turning to `CCn1cc(C(=O)Nc2cc3c(-c4cn(CC(F)F)nc4-c4ccccc4)ncnc3cc2OC)cn1` [Example 268, N-(4-(1-(2,2-difluoroethyl)-3-phenyl-1H-pyrazol-4-yl)-7-methoxyquinazolin-6-yl)-1-ethyl-1H-pyrazole-4-carboxamide], the IC50 in experiment [1] was 1.1 nM; in experiment [2], 0.8 nM; in experiment [3], 1.8 nM.

Broadly, the IC50 is the concentration needed to halve the response being measured.
